What all share (assay): BOCILLIN FL fluorescence inhibition, SDS-PAGE
Common to all, as to format: binding
What all share (details): read-out: FIC50

One assay has as its target PonA1 (Rv0050) (Mycobacterium tuberculosis, UniProt P71707). The text has this: BOCILLIN FL fluorescence inhibition, SDS-PAGE on PonA1 (Rv0050)
In the next assay the target is DacB1 (Rv3330) (Mycobacterium tuberculosis, UniProt O53380). The text has this: BOCILLIN FL fluorescence inhibition, SDS-PAGE on DacB1 (Rv3330)
The target in a further assay is DacB2 (Rv2911) (Mycobacterium tuberculosis, UniProt I6Y204). The text has this:
BOCILLIN FL fluorescence inhibition, SDS-PAGE on DacB2 (Rv2911)

The target of another assay is Rv1730c (Mycobacterium tuberculosis, UniProt P71988). The source says:
BOCILLIN FL fluorescence inhibition, SDS-PAGE on Rv1730c

In the next assay the target is PbpA (Rv0016c) (Mycobacterium tuberculosis, UniProt P9WKD1). The text has this: BOCILLIN FL fluorescence inhibition, SDS-PAGE on PbpA (Rv0016c)
PbpA (Rv0016c), sequence (P9WKD1 29-491): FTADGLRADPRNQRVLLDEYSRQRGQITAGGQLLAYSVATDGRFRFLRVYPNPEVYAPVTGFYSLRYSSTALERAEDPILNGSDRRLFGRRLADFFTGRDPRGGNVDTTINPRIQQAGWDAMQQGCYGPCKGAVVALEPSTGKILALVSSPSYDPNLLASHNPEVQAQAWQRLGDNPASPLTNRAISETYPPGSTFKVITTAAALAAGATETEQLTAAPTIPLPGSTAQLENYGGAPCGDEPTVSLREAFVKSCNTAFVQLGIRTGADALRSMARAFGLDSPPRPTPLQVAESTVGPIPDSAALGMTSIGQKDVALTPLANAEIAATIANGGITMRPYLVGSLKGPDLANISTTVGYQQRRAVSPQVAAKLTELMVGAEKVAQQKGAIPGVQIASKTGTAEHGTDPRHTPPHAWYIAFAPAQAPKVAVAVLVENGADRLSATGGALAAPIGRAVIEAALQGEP
The next assay has as its target DacB (Rv3627c) (Mycobacterium tuberculosis, UniProt O06380). The text has this:
BOCILLIN FL fluorescence inhibition, SDS-PAGE on DacB (Rv3627c)

The target in the next assay is PbpB (Rv2163c) (Mycobacterium tuberculosis, UniProt L0T911). The source says:
BOCILLIN FL fluorescence inhibition, SDS-PAGE on PbpB (Rv2163c)

Another assay addresses PonA2 (Rv3682) (Mycobacterium tuberculosis, UniProt I6YGX2). The source says:
BOCILLIN FL fluorescence inhibition, SDS-PAGE on PonA2 (Rv3682)

Rv1730c, sequence (P71988 entry or part of it): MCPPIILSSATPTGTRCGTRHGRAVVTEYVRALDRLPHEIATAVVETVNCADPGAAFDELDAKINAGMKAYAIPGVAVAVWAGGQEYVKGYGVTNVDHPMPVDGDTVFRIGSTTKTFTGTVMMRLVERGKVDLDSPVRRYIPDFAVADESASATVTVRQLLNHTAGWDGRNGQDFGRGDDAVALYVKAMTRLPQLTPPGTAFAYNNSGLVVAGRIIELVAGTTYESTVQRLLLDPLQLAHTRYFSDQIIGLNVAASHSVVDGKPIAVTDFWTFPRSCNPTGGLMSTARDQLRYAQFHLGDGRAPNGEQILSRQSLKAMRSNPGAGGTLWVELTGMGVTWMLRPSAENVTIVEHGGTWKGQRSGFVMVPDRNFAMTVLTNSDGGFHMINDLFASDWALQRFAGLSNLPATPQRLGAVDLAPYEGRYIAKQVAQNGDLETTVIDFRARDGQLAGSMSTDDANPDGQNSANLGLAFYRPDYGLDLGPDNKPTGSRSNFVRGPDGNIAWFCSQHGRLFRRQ
DacB1 (Rv3330), sequence (O53380 33-374): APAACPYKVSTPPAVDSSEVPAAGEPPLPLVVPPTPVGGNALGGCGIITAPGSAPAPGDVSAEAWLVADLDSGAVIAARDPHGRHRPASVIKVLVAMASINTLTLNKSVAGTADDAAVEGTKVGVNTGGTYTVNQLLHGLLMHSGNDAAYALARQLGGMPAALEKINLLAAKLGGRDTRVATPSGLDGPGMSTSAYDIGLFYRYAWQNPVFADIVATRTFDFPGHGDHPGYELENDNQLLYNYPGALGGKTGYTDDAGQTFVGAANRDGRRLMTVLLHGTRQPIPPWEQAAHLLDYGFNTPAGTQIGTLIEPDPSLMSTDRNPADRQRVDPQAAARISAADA
PonA1 (Rv0050), sequence (P71707 160-820): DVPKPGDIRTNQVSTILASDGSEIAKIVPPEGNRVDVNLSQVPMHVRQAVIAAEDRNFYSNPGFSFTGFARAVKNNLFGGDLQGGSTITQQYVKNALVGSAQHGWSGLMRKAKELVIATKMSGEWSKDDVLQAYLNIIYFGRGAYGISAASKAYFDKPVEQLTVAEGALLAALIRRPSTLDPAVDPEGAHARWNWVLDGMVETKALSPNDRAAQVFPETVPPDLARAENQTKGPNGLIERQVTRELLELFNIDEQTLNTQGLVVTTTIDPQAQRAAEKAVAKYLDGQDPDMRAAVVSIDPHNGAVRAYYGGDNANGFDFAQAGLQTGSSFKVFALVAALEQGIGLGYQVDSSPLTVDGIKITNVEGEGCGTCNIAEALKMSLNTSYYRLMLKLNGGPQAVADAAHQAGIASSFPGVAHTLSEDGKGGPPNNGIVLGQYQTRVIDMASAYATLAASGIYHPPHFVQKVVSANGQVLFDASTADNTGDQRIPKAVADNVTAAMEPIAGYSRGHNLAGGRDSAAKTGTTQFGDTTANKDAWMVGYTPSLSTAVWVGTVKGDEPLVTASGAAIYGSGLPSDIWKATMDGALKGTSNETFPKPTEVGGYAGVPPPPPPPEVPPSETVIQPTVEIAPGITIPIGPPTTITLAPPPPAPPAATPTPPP
DacB (Rv3627c), sequence (O06380 35-461): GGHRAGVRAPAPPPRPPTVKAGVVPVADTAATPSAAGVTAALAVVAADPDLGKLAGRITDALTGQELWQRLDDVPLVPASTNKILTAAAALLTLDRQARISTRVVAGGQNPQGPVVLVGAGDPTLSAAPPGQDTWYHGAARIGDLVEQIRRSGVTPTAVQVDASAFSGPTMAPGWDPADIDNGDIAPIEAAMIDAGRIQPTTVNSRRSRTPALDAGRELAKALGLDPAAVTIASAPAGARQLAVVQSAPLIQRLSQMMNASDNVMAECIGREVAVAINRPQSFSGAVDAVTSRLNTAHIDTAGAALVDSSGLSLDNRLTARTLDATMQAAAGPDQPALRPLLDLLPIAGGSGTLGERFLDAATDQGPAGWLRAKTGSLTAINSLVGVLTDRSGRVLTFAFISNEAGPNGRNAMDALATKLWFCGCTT
DacB2 (Rv2911), sequence (I6Y204 23-291): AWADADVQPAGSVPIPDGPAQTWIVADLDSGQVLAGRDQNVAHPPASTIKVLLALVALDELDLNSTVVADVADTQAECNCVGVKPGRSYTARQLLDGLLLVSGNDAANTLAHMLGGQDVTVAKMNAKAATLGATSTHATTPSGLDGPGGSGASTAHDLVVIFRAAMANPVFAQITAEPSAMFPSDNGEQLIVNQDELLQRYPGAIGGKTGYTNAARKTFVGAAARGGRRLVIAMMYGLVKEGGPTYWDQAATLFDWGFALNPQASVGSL
PbpB (Rv2163c), sequence (L0T911 112-679): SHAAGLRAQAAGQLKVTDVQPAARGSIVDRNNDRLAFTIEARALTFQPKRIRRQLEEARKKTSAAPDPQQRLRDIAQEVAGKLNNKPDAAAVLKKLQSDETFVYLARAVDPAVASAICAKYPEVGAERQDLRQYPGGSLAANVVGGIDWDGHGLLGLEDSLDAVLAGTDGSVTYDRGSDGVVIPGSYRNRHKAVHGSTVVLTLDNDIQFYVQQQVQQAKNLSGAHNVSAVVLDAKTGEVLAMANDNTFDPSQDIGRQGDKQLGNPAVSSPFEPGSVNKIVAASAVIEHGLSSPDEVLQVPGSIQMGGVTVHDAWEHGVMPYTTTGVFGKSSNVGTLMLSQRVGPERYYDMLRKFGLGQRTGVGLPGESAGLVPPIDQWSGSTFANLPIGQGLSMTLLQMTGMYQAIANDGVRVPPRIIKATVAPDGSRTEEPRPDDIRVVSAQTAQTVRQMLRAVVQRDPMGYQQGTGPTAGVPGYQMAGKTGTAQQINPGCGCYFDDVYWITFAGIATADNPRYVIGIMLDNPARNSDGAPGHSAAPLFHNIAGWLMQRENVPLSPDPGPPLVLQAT
PonA2 (Rv3682), sequence (I6YGX2 entry or part of it): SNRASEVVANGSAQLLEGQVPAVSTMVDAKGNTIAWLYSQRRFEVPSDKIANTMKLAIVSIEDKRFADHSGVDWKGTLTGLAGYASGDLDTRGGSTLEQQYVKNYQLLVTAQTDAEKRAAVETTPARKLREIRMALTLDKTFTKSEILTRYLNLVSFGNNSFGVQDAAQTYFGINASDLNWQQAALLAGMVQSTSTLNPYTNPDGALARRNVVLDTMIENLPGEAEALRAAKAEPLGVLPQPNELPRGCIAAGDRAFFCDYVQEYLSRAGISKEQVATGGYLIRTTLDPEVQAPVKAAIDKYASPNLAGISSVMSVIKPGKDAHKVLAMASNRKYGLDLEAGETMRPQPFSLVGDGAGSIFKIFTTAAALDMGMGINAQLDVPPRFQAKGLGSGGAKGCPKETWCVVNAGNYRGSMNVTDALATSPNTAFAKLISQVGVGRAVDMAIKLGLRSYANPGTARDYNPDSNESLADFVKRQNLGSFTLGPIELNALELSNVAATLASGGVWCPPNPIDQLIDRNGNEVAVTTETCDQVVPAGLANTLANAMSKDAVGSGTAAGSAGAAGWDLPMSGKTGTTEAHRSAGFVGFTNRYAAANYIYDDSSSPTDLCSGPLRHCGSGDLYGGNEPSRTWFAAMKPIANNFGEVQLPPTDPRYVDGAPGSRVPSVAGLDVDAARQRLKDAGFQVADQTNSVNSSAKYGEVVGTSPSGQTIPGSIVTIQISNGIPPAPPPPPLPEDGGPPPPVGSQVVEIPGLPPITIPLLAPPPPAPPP

On to `CO[C@@]1(NC(=O)Cc2cccs2)C(=O)N2C(C(=O)O)=C(COC(N)=O)CS[C@@H]21` [Cefoxitin], for which the IC50 on PonA1 (Rv0050) came out at 25.1 ± 2.5 µM; at DacB1 (Rv3330), 15.6 ± 1.2 µM; on DacB2 (Rv2911), 8.1 ± 2.4 µM.
As to `C[C@@H](O)[C@H]1C(=O)N2C(C(=O)O)=C([C@H]3CCCO3)S[C@H]12` [Faropenem], the results for the IC50 at PonA1 (Rv0050) and on Rv1730c were 27.9 ± 3.5 µM and 89.8 ± 12.3 µM, respectively.
As to `C=CC1=C(C(=O)O)N2C(=O)[C@@H](NC(=O)/C(=N\O)c3csc(N)n3)[C@H]2SC1` [Cefdinir], at PbpA (Rv0016c), the IC50 worked out at 13.8 ± 6.9 µM.
Take `C[C@@H](O)[C@H]1C(=O)N2C(C(=O)O)=C(S[C@@H]3CN[C@H](C(=O)N(C)C)C3)[C@H](C)[C@H]12` [Meropenem]: the IC50 on DacB (Rv3627c) was found to be 1.5 ± 0.2 µM; on Rv1730c it was 838 ± 103 µM; on PbpB (Rv2163c), 4.1 ± 0.2 µM.
In the case of `COc1cccc(OC)c1C(=O)N[C@@H]1C(=O)N2[C@@H]1SC(C)(C)[C@@H]2C(=O)O` [Methicillin], the IC50 on PbpA (Rv0016c) stood at 11.6 ± 2.6 µM.
With `CC1(C)S[C@@H]2[C@H](NC(=O)[C@H](N)c3ccccc3)C(=O)N2[C@H]1C(=O)O` [Ampicillin], the IC50 at PbpB (Rv2163c) came out at 1.5 ± 0.4 µM.
Consider `C[C@@H](O)[C@H]1C(=O)N2C(C(=O)[O-])=C(SC3Cn4cnc[n+]4C3)[C@H](C)[C@H]12` (some centres unmarked) [Biapenem], for which the IC50 on DacB (Rv3627c) turned out to be 3.5 ± 0.2 µM; at Rv1730c, 569 ± 72.1 µM; on DacB1 (Rv3330), 18.1 ± 3 µM.
Consider `C[C@@H](O)[C@H]1C(=O)N2C(C(=O)O)=C(SCCN=CN)C[C@H]12` [Imipenem], for which the IC50 at PonA2 (Rv3682) was determined as 3 ± 0.6 µM; on DacB1 (Rv3330), 4.5 ± 1.4 µM; at DacB2 (Rv2911), 11.1 ± 3.2 µM.

Source of the values: paper PMC8865919, “Penicillin Binding Proteins and β-Lactamases of Mycobacterium tuberculosis: Reexamination of the Historical Paradigm” (mSphere, 2022).
